Test system: PDE1
Test: In vitro HTRF PDE1 inhibition assay
Type: biochemical
Settings: HTRF cGMP assay, 100 nM cyclic GMP, PDE (1A3, 1B or 1C) with calmodulin, 45 minutes at 37° C.; isoform of the tabulated values not stated
Method in brief: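 Activities are given as IC50 bands (<1, 1-10, >10 μM) derived from a 665/615 nm time-resolved FRET readout after d2-cGMP/anti-cGMP cryptate detection. Enzymes PDE1A3, 1B or 1C plus calmodulin were incubated 45 min at 37 °C with 100 nM cGMP, 1% DMSO, CaCl2/MgCl2 Tris buffer pH 7.4.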

| Compound | IC50 [µM] |
| --- | --- |
| CCCn1ncc2c(=O)n3c(nc21)CN(Cc1ccccc1)CC3 [Compound I-54, 8-Benzyl-1-propyl-6,7,8,9-tetrahydropyrazino[1,2-a]pyrazolo[3,4-d]pyrimidin-4(1H)-one] | 1 to 10 |
| CC(C)Cn1ncc2c(=O)n3c(nc21)CN(c1ccc(Cl)cc1)CC3 [Compound I-92, 8-(4-Chlorophenyl)-1-isobutyl-6,7,8,9-tetrahydropyrazino[1,2-a]pyrazolo[3,4-d]pyrimidin-4(1H)-one] | < 1 |
| CC(C)c1n[nH]c2c(=O)n3c(nc12)C(C)NCC3 (racemic) [Compound I-11, (±)-3-Isopropyl-5-methyl-5,6,7,8-tetrahydropyrazino[1,2-a]pyrazolo[4,3-d]pyrimidin-10(1H)-one] | > 10 |
| CC1c2nc3c(cnn3C(C)C)c(=O)n2CCN1Cc1ccccc1 (racemic) [Compound I-32, (±)-8-Benzyl-1-isopropyl-9-methyl-6,7,8,9-tetrahydropyrazino[1,2-a]pyrazolo[3,4-d]pyrimidin-4(1H)-one] | > 10 |
| CC(C)Cn1ncc2c(=O)n3c(nc21)CN(c1ccccc1Cl)CC3 [Compound I-86, 8-(2-Chlorophenyl)-1-isobutyl-6,7,8,9-tetrahydropyrazino[1,2-a]pyrazolo[3,4-d]pyrimidin-4(1H)-one] | 1 to 10 |
| COc1ccccc1N1CCn2c(nc3c(cnn3C3CCCC3)c2=O)C1 [Compound I-96, 1-Cyclopentyl-8-(2-methoxyphenyl)-6,7,8,9-tetrahydropyrazino[1,2-a]pyrazolo[3,4-d]pyrimidin-4(1H)-one] | 1 to 10 |
| CC(C)n1ncc2c(=O)n3c(nc21)C(Cc1ccccc1)N(C)CC3 (racemic) [Compound I-25, (±)-9-Benzyl-1-isopropyl-8-methyl-6,7,8,9-tetrahydropyrazino[1,2-a]pyrazolo[3,4-d]pyrimidin-4(1H)-one] | > 10 |
| CC(C)c1n[nH]c2c(=O)n3c(nc12)C(Cc1ccccc1)NCC3 (racemic) [Compound I-12, (±)-5-Benzyl-3-isopropyl-5,6,7,8-tetrahydropyrazino[1,2-a]pyrazolo[4,3-d]pyrimidin-10(1H)-one] | > 10 |
| CC1NCCn2c1nc1c(cnn1C)c2=O (racemic) [Compound I-3, (±)-1,9-Dimethyl-6,7,8,9-tetrahydropyrazino[1,2-a]pyrazolo[3,4-d]pyrimidin-4(1H)-one] | > 10 |
| CC(C)c1n[nH]c2c(=O)n3c(nc12)C(C)N(C)CC3 (racemic) [Compound I-38, (±)-3-Isopropyl-5,6-dimethyl-5,6,7,8-tetrahydropyrazino[1,2-a]pyrazolo[4,3-d]pyrimidin-10(1H)-one] | > 10 |
| O=c1c2cnn(C3CCCC3)c2nc2n1CCN(c1ccccc1Cl)C2 [Compound I-87, 8-(2-Chlorophenyl)-1-cyclopentyl-6,7,8,9-tetrahydropyrazino[1,2-a]pyrazolo[3,4-d]pyrimidin-4(1H)-one] | 1 to 10 |
| O=c1c2cnn(C3CC3)c2nc2n1CCN(Cc1ccccc1)C2 [Compound I-53, 8-Benzyl-1-cyclopropyl-6,7,8,9-tetrahydropyrazino[1,2-a]pyrazolo[3,4-d]pyrimidin-4(1H)-one] | > 10 |
| COc1cccc(CN2CCn3c(nc4c(cnn4CC(C)C)c3=O)C2)c1 [Compound I-80, 1-Isobutyl-8-(3-methoxybenzyl)-6,7,8,9-tetrahydropyrazino[1,2-a]pyrazolo[3,4-d]pyrimidin-4(1H)-one] | 1 to 10 |
| Cn1ncc2c(=O)n3c(nc21)C(Cc1ccccc1)N(Cc1ccccc1)CC3 (racemic) [Compound I-35, (±)-8,9-Dibenzyl-1-methyl-6,7,8,9-tetrahydropyrazino[1,2-a]pyrazolo[3,4-d]pyrimidin-4(1H)-one] | > 10 |
| CC1CN(C)Cc2nc3c(cnn3C3CCCC3)c(=O)n21 (racemic) [Compound I-100, (±)-1-Cyclopentyl-6,8-dimethyl-6,7,8,9-tetrahydropyrazino[1,2-a]pyrazolo[3,4-d]pyrimidin-4(1H)-one] | > 10 |

Other lines, results leading:

| IC50 [µM] | Compound |
| --- | --- |
| < 1 | Cc1ccc(CN2CCn3c(nn4c(C5CCCC5)ncc4c3=O)C2)cn1 [Compound I-189, 3-Cyclopentyl-7-((6-methylpyridin-3-yl)methyl)-8,9-dihydro-6H-imidazo[5,1-f]pyrazino[2,1-c][1,2,4]triazin-11(7H)-one] |
| 1 to 10 | O=c1c2cnc(C3CCNCC3)n2nc2n1CCN(c1ccc(Cl)cc1)C2 [Compound I-252, 7-(4-Chlorophenyl)-3-(piperidin-4-yl)-8,9-dihydro-6H-imidazo[5,1-f]pyrazino[2,1-c][1,2,4]triazin-11(7H)-one] |
| 1 to 10 | COc1ccc(CCN2CCn3c(nn4c(C5CCCC5)ncc4c3=O)C2)cc1 [Compound I-244, 3-Cyclopentyl-7-(4-methoxyphenethyl)-8,9-dihydro-6H-imidazo[5,1-f]pyrazino[2,1-c][1,2,4]triazin-11(7H)-one] |
| > 10 | CC1Cn2c(nc3c(cnn3C(C)C)c2=O)CN1 (racemic) [Compound I-103, (±)-1-Isopropyl-7-methyl-6,7,8,9-tetrahydropyrazino[1,2-a]pyrazolo[3,4-d]pyrimidin-4(1H)-one] |
| 1 to 10 | CC(C)Cc1nnc2c(=O)n3c(nn12)CN(Cc1ccccc1)CC3 [Compound I-214, 7-Benzyl-3-isobutyl-8,9-dihydro-6H-pyrazino[2,1-c][1,2,4]triazolo[3,4-f][1,2,4]triazin-11(7H)-one] |
| 1 to 10 | O=c1c2cnn(C3CCOC3)c2nc2n1CCN(Cc1ccccc1)C2 (racemic) [Compound I-218, (±)-8-Benzyl-1-(tetrahydrofuran-3-yl)-6,7,8,9-tetrahydropyrazino[1,2-a]pyrazolo[3,4-d]pyrimidin-4(1H)-one] |
| 1 to 10 | Cc1ncc(CN2CCn3c(nn4c(C(C)C)ncc4c3=O)C2)cn1 [Compound I-196, 3-Isopropyl-7-((2-methylpyrimidin-5-yl)methyl)-8,9-dihydro-6H-imidazo[5,1-f]pyrazino[2,1-c][1,2,4]triazin-11(7H)-one] |
| < 1 | CC(C)n1ncc2c(=O)n3c(nc21)CN(c1ccc(F)cc1)CC3 [Compound I-142, 8-(4-Fluorophenyl)-1-isopropyl-6,7,8,9-tetrahydropyrazino[1,2-a]pyrazolo[3,4-d]pyrimidin-4(1H)-one] |
| < 1 | CC(C)n1ncc2c(=O)n3c(nc21)CN(c1ccc(C(F)(F)F)cc1)CC3 [Compound I-239, 1-Isopropyl-8-(4-(trifluoromethyl)phenyl)-6,7,8,9-tetrahydropyrazino[1,2-a]pyrazolo[3,4-d]pyrimidin-4(1H)-one] |
| > 10 | CC(C)n1ncc2c(=O)n3c(nc21)CN(C)C(Cc1ccccc1)C3 (racemic) [Compound I-110, (±)-7-Benzyl-1-isopropyl-8-methyl-6,7,8,9-tetrahydropyrazino[1,2-a]pyrazolo[3,4-d]pyrimidin-4(1H)-one] |
| < 1 | CCOc1cccc(N2CCn3c(nc4c(cnn4C(C)C)c3=O)C2)c1 [Compound I-141, 8-(3-Ethoxyphenyl)-1-isopropyl-6,7,8,9-tetrahydropyrazino[1,2-a]pyrazolo[3,4-d]pyrimidin-4(1H)-one] |
| 1 to 10 | CC(C)n1ncc2c(=O)n3c(nc21)CN(Cc1cccc(F)c1)CC3 [Compound I-137, 8-(3-Fluorobenzyl)-1-isopropyl-6,7,8,9-tetrahydropyrazino[1,2-a]pyrazolo[3,4-d]pyrimidin-4(1H)-one] |
| > 10 | CC(C)n1ncc2c(=O)n3c(nc21)CN(Cc1ccc(F)cc1)CC3 [Compound I-138, 8-(4-Fluorobenzyl)-1-isopropyl-6,7,8,9-tetrahydropyrazino[1,2-a]pyrazolo[3,4-d]pyrimidin-4(1H)-one] |
| < 1 | COc1cccc(N2CCn3c(nn4c(C(C)C)ncc4c3=O)C2)c1 [Compound I-174, 3-Isopropyl-7-(3-methoxyphenyl)-8,9-dihydro-6H-imidazo[5,1-f]pyrazino[2,1-c][1,2,4]triazin-11(7H)-one] |
| 1 to 10 | CC(C)Cc1nnc2c(=O)n3c(nn12)CN(Cc1ccncc1)CC3 [Compound I-228, 3-Isobutyl-7-(pyridin-4-ylmethyl)-8,9-dihydro-6H-pyrazino[2,1-c][1,2,4]triazolo[3,4-f][1,2,4]triazin-11(7H)-one] |
| > 10 | CC(C)n1ncc2c(=O)n3c(nc21)CN(C)C(c1ccccc1)C3 (racemic) [Compound I-107, (±)-1-Isopropyl-8-methyl-7-phenyl-6,7,8,9-tetrahydropyrazino[1,2-a]pyrazolo[3,4-d]pyrimidin-4(1H)-one] |
| 1 to 10 | COc1ccc(CN2Cc3nc4c(cnn4C4CCCC4)c(=O)n3C(C)C2)cc1 (racemic) [Compound I-122, (±)-1-Cyclopentyl-8-(4-methoxybenzyl)-6-methyl-6,7,8,9-tetrahydropyrazino[1,2-a]pyrazolo[3,4-d]pyrimidin-4(1H)-one] |
| < 1 | O=c1c2nnc(C3CCCC3)n2nc2n1CCN(Cc1ccc(Cl)cc1)C2 [Compound I-132, 7-(4-Chlorobenzyl)-3-cyclopentyl-8,9-dihydro-6H-pyrazino[2,1-c][1,2,4]triazolo[3,4-f][1,2,4]triazin-11(7H)-one] |
| 1 to 10 | O=c1c2[nH]nc(C3CCCC3)c2nc2n1CCN(Cc1ccc(Cl)cc1)C2 [Compound I-124, 6-(4-Chlorobenzyl)-3-cyclopentyl-5,6,7,8-tetrahydropyrazino[1,2-a]pyrazolo[4,3-d]pyrimidin-10(1H)-one] |
| < 1 | O=c1c2cnn(C3CCOC3)c2nc2n1CCN(c1ccc(Cl)cc1)C2 (racemic) [Compound I-217, (±)-8-(4-Chlorophenyl)-1-(tetrahydrofuran-3-yl)-6,7,8,9-tetrahydropyrazino[1,2-a]pyrazolo[3,4-d]pyrimidin-4(1H)-one] |
| 1 to 10 | O=c1c2cnn(C3CCCC3)c2nc2n1CCN(Cc1cnccn1)C2 [Compound I-203, 1-Cyclopentyl-8-(pyrazin-2-ylmethyl)-6,7,8,9-tetrahydropyrazino[1,2-a]pyrazolo[3,4-d]pyrimidin-4(1H)-one] |
